Reference: BindingDB's records for doi:10.1021/jm049496b (University of Colorado, 2004)

Tests used:
[1] = target: T1, 7-dehydrocholesterol reductase (Homo sapiens, UniProt Q9UBM7); assay: Growth inhibition of MDA-MB-231 cells containing antiestrogen binding sites
T1 sequence (Q9UBM7 whole entry): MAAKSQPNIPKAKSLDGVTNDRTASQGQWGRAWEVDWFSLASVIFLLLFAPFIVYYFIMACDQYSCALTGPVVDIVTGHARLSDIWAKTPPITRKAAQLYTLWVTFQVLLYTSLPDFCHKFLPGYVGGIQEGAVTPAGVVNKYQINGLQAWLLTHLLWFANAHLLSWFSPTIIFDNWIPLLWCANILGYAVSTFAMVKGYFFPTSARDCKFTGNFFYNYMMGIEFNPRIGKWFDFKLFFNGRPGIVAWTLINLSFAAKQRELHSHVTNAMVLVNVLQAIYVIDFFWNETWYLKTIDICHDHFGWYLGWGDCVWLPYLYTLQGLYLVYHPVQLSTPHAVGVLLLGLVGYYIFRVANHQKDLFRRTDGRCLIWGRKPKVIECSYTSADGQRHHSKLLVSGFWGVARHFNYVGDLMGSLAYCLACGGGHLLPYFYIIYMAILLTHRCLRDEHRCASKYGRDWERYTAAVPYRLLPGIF

[2] = target: T1, 7-dehydrocholesterol reductase; assay: Growth inhibition of MDA-MB-435 cells containing antiestrogen binding sites
[3] = target: T1, 7-dehydrocholesterol reductase; assay: Growth inhibition of MCF7 cells expressing ER and antiestrogen binding sites
[4] = target: T1, 7-dehydrocholesterol reductase; assay: Growth inhibition of multidrug resistant MCF7/Adr cells containing antiestrogen binding sites

IC50 [1] [µM]	IC50 [2] [µM]	IC50 [3] [µM]	IC50 [4] [µM]	SMILES
0.08	0.05	0.07	2	COc1cccc2c1C(=O)c1c(O)c3c(c(O)c1C2=O)C[C@@](O)(C(=O)CO)C[C@@H]3O[C@H]1C[C@H](NCNC(=O)c2ccccc2O)[C@H](O)[C@H](C)O1
0.03	0.04	0.03	0.06	CC/C(=C(/c1ccc(O)cc1)c1ccc(OCCN(C)CCOCCOCCO/N=C/c2ccc(O)c(C(=O)NCN[C@H]3C[C@H](O[C@H]4C[C@](O)(C(=O)CO)Cc5c(O)c6c(c(O)c54)C(=O)c4c(OC)cccc4C6=O)O[C@@H](C)[C@H]3O)c2)cc1)c1ccccc1
